Laboratory results published in patent US8518945B2, “Pyrrolopyrazine kinase inhibitors” (Hoffmann-La Roche Inc., priority 2010, dated 2013).

Each compound was assayed against T1, h-jak3(810-1124) (JAK3: Recombinant human kinase domain) (Homo sapiens, UniProt P52333) (assay: Determination of IC50 of Janus Kinase (JAK) inhibition: JAK3 radioactive end-point 33P-ATP kinase assay). Details: no additive; ATP 1.5 uM, peptide 50 uM, 20 minutes, room temperature; read-out: Ic50 h-jak3(810-1124)-sf9-c: no additive.
T1 construct: jak3(810- 1124)-sf9-c; made in house; host or cells: Sf9
T1 sequence (P52333 810-1124): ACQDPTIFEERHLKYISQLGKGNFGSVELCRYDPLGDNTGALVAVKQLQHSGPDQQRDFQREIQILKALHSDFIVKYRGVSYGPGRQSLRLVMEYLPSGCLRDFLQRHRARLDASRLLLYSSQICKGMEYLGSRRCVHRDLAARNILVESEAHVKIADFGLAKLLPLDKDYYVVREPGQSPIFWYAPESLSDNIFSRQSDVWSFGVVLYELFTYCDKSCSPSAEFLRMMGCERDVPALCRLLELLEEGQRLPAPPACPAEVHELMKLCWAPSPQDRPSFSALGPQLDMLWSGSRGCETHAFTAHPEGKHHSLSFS
Assay type: biochemical
Source text: Determination of IC50 of Janus Kinase (JAK) Inhibition:
Enzymes and peptide substrate used are described below: • JAK1: Recombinant human kinase domain from Invitrogen (Cat # PV4774) • JAK3: Recombinant human kinase domain from Millipore (Cat # 14-629) or prepared. • JAK2: Recombinant human kinase domain from Millipore (Cat # 14-640) • Substrate: N-terminally biotinylated 14-mer peptide derived from activation loop of JAK1 with sequence of the peptide substrate: Biotin-[sequence]
Assay conditions— used are described below: • Assay Buffer: JAK Kinase Buffer: 50 mM Hepes [pH 7.2], 10 mM MgCl2, 1 mM DTT, 1 mg/ml BSA. The assay was carried out in this buffer. • Assay Format The kinase activity of all three JAK kinases was measured using a radioactive, end-point assay and with trace amounts of ^33P-ATP. The assays were carried out in 96-well polypropylene plates. Experimental Method:
All concentrations were final in the reaction mixture and all incubations were carried at room temperature. […] Final concentration of DMSO in the reaction was 10%. • 2) Compounds were preincubated with enzyme (0.5 nM JAK3 (commercially available), 0.2 nM JAK3 (prepared), 1 nM JAK2, 5 nM JAK1) for 10 minutes. • 3) Reactions were initiated by the addition of a cocktail of the two substrates (ATP and peptide premixed in the JAK Kinase Buffer). In the JAK2/JAK3 assays, ATP and the peptide were used at concentrations of 1.5 uM and 50 uM, respectively. JAK1 assay was carried out at an ATP concentration of 10 uM and a peptide concentration of 50 uM. • 4) The duration of the assay for JAK2 and JAK3 is 20 minutes. JAK1 assay was carried out for 40 minutes. With all three enzymes, reactions were terminated by the addition of 0.5M EDTA to a final concentration of 100 mM. • 5) 25 ul of terminated reactions were transferred to 150 ul of a 7.5% (v/v) slurry of streptavidin-coated sepharose beads in MgCl2- and CaCl2-free 1× Phosphate Buffered Saline containing 50 mM of EDTA in 96-well, 1.2 um MultiScreen-BV filter plates. • 6) After a 30-minute incubation, the beads were washed under vacuum with the following buffers: • a. 3 to 4 washes with 200 ul of 2M NaCl. • b. 3 to 4 washes with 200 ul of 2M NaCl plus 1% (v/v) phosphoric acid. • c. 1 wash with water. • 7) Washed plates were dried in a 60° C. oven for between 1 to 2 hours. • 8) 70 ul of Microscint 20 scintillation fluid was added to each well of filter plates and after at least 30 minutes of incubation, radioactive counts were measured in a Perkinelmer microplate scintillation counter.

CC(C)(C)[C@@H](NC(=O)c1c[nH]c2ncc(-c3cn(C4CCCC4)cn3)nc12)C(=O)N1CCC(C#N)CC1 [Example I-120, 2-(1-Cyclopentyl-1H-imidazol-4-yl)-5H-pyrrolo[2,3-b]pyrazine-7-carboxylic acid [(R)-1-(4-cyano-piperidine-1-carbonyl)-2,2-dimethyl-propyl]-amide] and CC(C)(C)[C@@H](NC(=O)c1c[nH]c2ncc(-c3cn(CC(F)(F)F)cn3)nc12)C(=O)N1CCC(C#N)CC1 [Example I-122, 2-[1-(2,2,2-Trifluoro-ethyl)-1H-imidazol-4-yl]-5H-pyrrolo[2,3-b]pyrazine-7-carboxylic acid [(R)-1-(4-cyano-piperidine-1-carbonyl)-2,2-dimethyl-propyl]-amide] are within 1.5-fold of each other in IC50: 3.7 nM for the first, 4.05 nM for the second.

Going from CC(C)(C)[C@@H](NC(=O)c1c[nH]c2ncc(-c3cc(C(F)(F)F)cc(C(F)(F)F)c3)nc12)C(=O)N1CCC(C#N)CC1 [Example I-50, 2-(3,5-Bis-trifluoromethyl-phenyl)-5H-pyrrolo[2,3-b]pyrazine-7-carboxylic acid [(R)-1-(4-cyano-piperidine-1-carbonyl)-2,2-dimethyl-propyl]-amide] to CC(C)(C)[C@@H](NC(=O)c1c[nH]c2ncc(-c3ccc(C(F)(F)F)cc3)nc12)C(=O)N1CCC(C#N)CC1 [Example I-128, 2-(4-Trifluoromethyl-phenyl)-5H-pyrrolo[2,3-b]pyrazine-7-carboxylic acid [(R)-1-(4-cyano-piperidine-1-carbonyl)-2,2-dimethyl-propyl]-amide], the IC50 rises from 0.4 nM to 2.81 nM (7-fold). The first is the more potent here.

C[C@@H](NC(=O)c1c[nH]c2ncc(-c3cccc(N4CCC(C)(C)C4)c3)nc12)C(=O)N1CC(C#N)C1 [Example I-123, 2-[3-(3,3-Dimethyl-pyrrolidin-1-yl)-phenyl]-5H-pyrrolo[2,3-b]pyrazine-7-carboxylic acid [(R)-2-(3-cyano-azetidin-1-yl)-1-methyl-2-oxo-ethyl]-amide] and C[C@@H](NC(=O)c1c[nH]c2ncc(-c3cccc(N4C[C@H]5C[C@H]5C4)c3)nc12)C(=O)N1CC(C#N)C1 [Example I-126, 2-[(1S,5R)-3-(3-Aza-bicyclo[3.1.0]hex-3-yl)-phenyl]-5H-pyrrolo[2,3-b]pyrazine-7-carboxylic acid [(R)-2-(3-cyano-azetidin-1-yl)-1-methyl-2-oxo-ethyl]-amide] are within 1.5-fold of each other in IC50: 0.62 nM for the first, 0.57 nM for the second.

Going from CCn1cc(-c2cnc3[nH]cc(C(=O)N[C@@H](C(=O)N4CCC(F)(C#N)C4)C(C)(C)C)c3n2)cn1 (stereo partly drawn) [Example I-36, 2-(1-Ethyl-1H-pyrazol-4-yl)-5H-pyrrolo[2,3-b]pyrazine-7-carboxylic acid [(R)-1-(3-cyano-3-fluoro-pyrrolidine-1-carbonyl)-2,2-dimethyl-propyl]-amide] to CCn1cc(-c2cnc3[nH]cc(C(=O)N[C@@H](C(=O)N4CCC(F)(C5=NCCN5)C4)C(C)(C)C)c3n2)cn1 (stereo partly drawn) [Example I-38, 2-(1-Ethyl-1H-pyrazol-4-yl)-5H-pyrrolo[2,3-b]pyrazine-7-carboxylic acid {(R)-1-[3-(4,5-dihydro-1H-imidazol-2-yl)-3-fluoro-pyrrolidine-1-carbonyl]-2,2-dimethyl-propyl}-amide], the IC50 rises from no more than 0.32 nM to 2.79 nM.

First: CC(C)(C)[C@@H](NC(=O)c1c[nH]c2ncc(-c3cccc(N4CCCC4)c3)nc12)C(=O)N1CCC(C#N)CC1 [Example I-51, 2-(3-Pyrrolidin-1-yl-phenyl)-5H-pyrrolo[2,3-b]pyrazine-7-carboxylic acid [(R)-1-(4-cyano-piperidine-1-carbonyl)-2,2-dimethyl-propyl]-amide]
Second: CC(C)(C)[C@@H](NC(=O)c1c[nH]c2ncc(-c3ccccn3)nc12)C(=O)N1CCC(C#N)CC1 [Example I-115, 2-Pyridin-2-yl-5H-pyrrolo[2,3-b]pyrazine-7-carboxylic acid [(R)-1-(4-cyano-piperidine-1-carbonyl)-2,2-dimethyl-propyl]-amide]
The IC50 of the first is 38-fold higher: 111 nM for the first, 2.92 nM for the second.

N#CC1CN(C(=O)[C@H](NC(=O)c2c[nH]c3ncc(-c4cc5nccc(Cl)c5s4)nc23)C2CC2)C1 [Example I-96, 2-(7-Chloro-thieno[3,2-b]pyridin-2-yl)-5H-pyrrolo[2,3-b]pyrazine-7-carboxylic acid [(R)-2-(3-cyano-azetidin-1-yl)-1-cyclopropyl-2-oxo-ethyl]-amide] and COc1ccnc2cc(-c3cnc4[nH]cc(C(=O)N[C@@H](C(=O)N5CC(C#N)C5)C5CC5)c4n3)sc12 [Example I-99, 2-(7-Methoxy-thieno[3,2-b]pyridin-2-yl)-5H-pyrrolo[2,3-b]pyrazine-7-carboxylic acid [(R)-2-(3-cyano-azetidin-1-yl)-1-cyclopropyl-2-oxo-ethyl]-amide] are within 1.5-fold of each other in IC50: 0.69 nM for the first, 0.78 nM for the second.

Compared with CC1CCCN1C(=O)[C@@H](C)NC(=O)c1c[nH]c2ncc(C3CC3)nc12 (stereo partly drawn) [Example I-16, 2-Cyclopropyl-5H-pyrrolo[2,3-b]pyrazine-7-carboxylic acid [(R)-1-methyl-2-(2-methyl-pyrrolidin-1-yl)-2-oxo-ethyl]-amide], CC(C)(C)[C@@H](NC(=O)c1c[nH]c2ncc(C3CC3)nc12)C(=O)N1CCCC(C#N)C1 (stereo partly drawn) [Example I-29, 2-Cyclopropyl-5H-pyrrolo[2,3-b]pyrazine-7-carboxylic acid [(R)-1-(3-cyano-piperidine-1-carbonyl)-2,2-dimethyl-propyl]-amide] is 5.3-fold lower in IC50: 72.5 nM for the first, 13.6 nM for the second.

Going from CC1(O)CCN(C(=O)[C@H](NC(=O)c2c[nH]c3ncc(C4CC4)nc23)C(C)(C)C)CC1 [Example I-73, 2-Cyclopropyl-5H-pyrrolo[2,3-b]pyrazine-7-carboxylic acid [(R)-1-(4-hydroxy-4-methyl-piperidine-1-carbonyl)-2,2-dimethyl-propyl]-amide] to O=C(NC(C(=O)N1CCCC1)C(F)(F)F)c1c[nH]c2ncc(C3CC3)nc12 (stereo not drawn) [Example I-19, 2-Cyclopropyl-5H-pyrrolo[2,3-b]pyrazine-7-carboxylic acid [2,2,2-trifluoro-1-(pyrrolidine-1-carbonyl)-ethyl]-amide], the IC50 rises from 3.34 nM to 27 nM (8.1-fold). The first is the more potent here.

Compared with N#CC1CN(C(=O)[C@H](NC(=O)c2c[nH]c3ncc(C4CC4)nc23)C2CCOCC2)C1 [Example I-136, 2-Cyclopropyl-5H-pyrrolo[2,3-b]pyrazine-7-carboxylic acid [(R)-2-(3-cyano-azetidin-1-yl)-2-oxo-1-(tetrahydro-pyran-4-yl)-ethyl]-amide], N#CC1CCN(C(=O)[C@@H](CC2CC2)NC(=O)c2c[nH]c3ncc(C4CC4)nc23)CC1 [Example I-116, 2-Cyclopropyl-5H-pyrrolo[2,3-b]pyrazine-7-carboxylic acid [(R)-2-(4-cyano-piperidin-1-yl)-1-cyclopropylmethyl-2-oxo-ethyl]-amide] is 2.6-fold lower in IC50: 7.11 nM for the first, 2.73 nM for the second. The second is the more potent here.

C[C@@H](NC(=O)c1c[nH]c2ncc(-c3cc(-n4cccn4)ccn3)nc12)C(=O)N1CC(C#N)C1 [Example I-152, 2-(4-Pyrazol-1-yl-pyridin-2-yl)-5H-pyrrolo[2,3-b]pyrazine-7-carboxylic acid [(R)-2-(3-cyano-azetidin-1-yl)-1-methyl-2-oxo-ethyl]-amide] and CNC(=O)c1ccnc(-c2cnc3[nH]cc(C(=O)N[C@H](C)C(=O)N4CC(C#N)C4)c3n2)c1 [Example I-155, 2-(4-Methylcarbamoyl-pyridin-2-yl)-5H-pyrrolo[2,3-b]pyrazine-7-carboxylic acid [(R)-2-(3-cyano-azetidin-1-yl)-1-methyl-2-oxo-ethyl]-amide] are within 1.5-fold of each other in IC50: 9.52 nM for the first, 10.5 nM for the second.

Going from CC(C)(C)[C@@H](NC(=O)c1c[nH]c2ncc(OC3CCCCC3)nc12)C(=O)N1CCC(C#N)CC1 [Example I-90, 2-Cyclohexyloxy-5H-pyrrolo[2,3-b]pyrazine-7-carboxylic acid [(R)-1-(4-cyano-piperidine-1-carbonyl)-2,2-dimethyl-propyl]-amide] to CC(C)(C)[C@@H](NC(=O)c1c[nH]c2ncc(OCCC(F)(F)F)nc12)C(=O)N1CCC(C#N)CC1 [Example I-91, 2-(3,3,3-Trifluoro-propoxy)-5H-pyrrolo[2,3-b]pyrazine-7-carboxylic acid [(R)-1-(4-cyano-piperidine-1-carbonyl)-2,2-dimethyl-propyl]-amide], the IC50 rises from 9.73 nM to 17 nM (1.7-fold).

First: CC(C)(C)[C@@H](NC(=O)c1c[nH]c2ncc(-c3cnn(-c4ccc(F)cc4)c3)nc12)C(=O)N1CCC(C#N)CC1 [Example I-117, 2-[1-(4-Fluoro-phenyl)-1H-pyrazol-4-yl]-5H-pyrrolo[2,3-b]pyrazine-7-carboxylic acid [(R)-1-(4-cyano-piperidine-1-carbonyl)-2,2-dimethyl-propyl]-amide]
Second: N#CC1CCN(C(=O)[C@H](NC(=O)c2c[nH]c3ncc(C4CC4)nc23)c2ccccc2)CC1 [Example I-114, 2-Cyclopropyl-5H-pyrrolo[2,3-b]pyrazine-7-carboxylic acid [(R)-2-(4-cyano-piperidin-1-yl)-2-oxo-1-phenyl-ethyl]-amide]
The IC50 of the first is 16-fold lower: 1.01 nM for the first, 16.3 nM for the second. The first is the more potent here.

Compared with CCn1cc(-c2cnc3[nH]cc(C(=O)N[C@@H](C(=O)N4CCC(F)(F)C4)C4CC4)c3n2)cn1 [Example I-139, 2-(1-Ethyl-1H-pyrazol-4-yl)-5H-pyrrolo[2,3-b]pyrazine-7-carboxylic acid [(R)-1-cyclopropyl-2-(3,3-difluoro-pyrrolidin-1-yl)-2-oxo-ethyl]-amide], N#CC1CN(C(=O)[C@H](NC(=O)c2c[nH]c3ncc(-c4cn(-c5cc(F)ccc5F)cn4)nc23)C2CC2)C1 [Example I-132, 2-[1-(2,5-Difluoro-phenyl)-1H-imidazol-4-yl]-5H-pyrrolo[2,3-b]pyrazine-7-carboxylic acid [(R)-2-(3-cyano-azetidin-1-yl)-1-cyclopropyl-2-oxo-ethyl]-amide] is higher in IC50: no more than 0.32 nM for the first, 0.49 nM for the second. The first is the more potent here.

CC(C)[C@@H](NC(=O)c1c[nH]c2ncc(Oc3ccccc3)nc12)C(=O)N1CCCC1 [Example I-18, 2-Phenoxy-5H-pyrrolo[2,3-b]pyrazine-7-carboxylic acid [(R)-2-methyl-1-(pyrrolidine-1-carbonyl)-propyl]-amide] gave an IC50 of 443 nM.
